Experimental data published in patent US20240174680A1, “CDK2 INHIBITORS AND METHODS OF USING THE SAME” (Cedilla Therapeutics, Inc., priority 2021, published 2024).
pIC50: −log10 of the molar value.

Target: CDK2/Cyclin E1 (Homo sapiens, UniProt P24941)
Experiment: CDK2/Cyclin E1 Caliper LabChip EZ Reader mobility shift assay
Assay type: biochemical
Parameters: purchased Eurofins 14-475
Details: read-out: Caliper Assay (CDK2/CCNE1): IC50
Procedure, shortened: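 Mobility-shift kinase assay: compound titrations preincubated 30 min with enzyme and ATP, reaction started with 5-FAM-QSPKKG-CONH2 peptide. Final 2.5 nM CDK2/Cyclin E1, 100 μM ATP, 1.5 μM peptide, HEPES pH 7.5; stopped with EDTA after 100 min. IC50 from four-parameter fit of normalized conversion ratio.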

| Compound | pIC50 |
| --- | --- |
| CNC(=O)[C@@H](NC(=O)[C@@H]1CN(C(=O)c2cnn(Cc3ccccc3)c2)CC12CN(C(=O)[C@H]1CC1(C)C)C2)[C@@H](C)OCc1cccc(O)c1 [I-262] | 6.00 to 7.00 |
| CNC(=O)[C@@H](NC(=O)[C@@H]1CN(C(=O)c2cnn(Cc3ccccc3)c2)CC12CN(C(=O)[C@H]1CC1(C)C)C2)[C@@H](C)OCc1ccc(Br)cc1 [I-263] | ≥ 8.00 |
| Cc1cc(C(=O)N2CC(C(=O)N[C@H](C(=O)N3CCCCC3)[C@@H](C)OCC3CCCCC3)C3(C2)CN(C(=O)[C@H]2CC2(C)C)C3)[nH]n1 (stereo partly shown) [I-264] | 5.00 to 6.00 |
| C[C@@H](OCC1CCCCC1)[C@H](NC(=O)C1CN(C(=O)C2CCC(=O)NC2)CC12CN(C(=O)[C@H]1CC1(C)C)C2)C(=O)N1CCCCC1 (stereo partly shown) [I-265] | 5.00 to 6.00 |
| CNC(=O)[C@@H](NC(=O)[C@@H]1CN(C(=O)c2cnn(Cc3ccccc3)c2)CC12CN(C(=O)[C@H]1CC1(C)C)C2)[C@@H](C)N(C)CC1CCCCC1 [I-266] | 5.00 to 6.00 |
| CNC(=O)[C@@H](NC(=O)[C@@H]1CN(C(=O)c2cnn(Cc3ccccc3)c2)CC12CN(C(=O)NC(C)C)C2)[C@@H](C)OCC1CCCCC1 [I-267] | 5.00 to 6.00 |
| CNC(=O)[C@@H](NC(=O)[C@@H]1CN(C(=O)c2cnn(Cc3ccccc3)c2)CC12CN(C(=O)NC1CC1)C2)[C@@H](C)OCC1CCCCC1 [I-268, (S)-6-(1-benzyl-1H-pyrazole-4-carbonyl)-N8-((2S,3R)-3-(cyclohexylmethoxy)-1-(methylamino)-1-oxobutan-2-yl)-N2-cyclopropyl-2,6-diazaspiro[3.4]octane-2,8-dicarboxamide] | < 5.00 |
| CNC(=O)[C@@H](NC(=O)[C@@H]1CN(C(=O)c2cnn(Cc3ccccc3)c2)CC12CN(C(=O)[C@H]1CC1(C)C)C2)[C@@H](C)NCC1CCCCC1 [I-269, (S)-6-(1-benzyl-1H-pyrazole-4-carbonyl)-N-((2S,3R)-3-((cyclohexylmethyl)amino)-1-(methylamino)-1-oxobutan-2-yl)-2-((S)-2,2-dimethylcyclopropane-1-carbonyl)-2,6-diazaspiro[3.4]octane-8-carboxamide] | 6.00 to 7.00 |
| C[C@@H](OCC1CCCCC1)[C@H](NC(=O)[C@@H]1CN(C(=O)c2cnn(Cc3ccccc3)c2)CC12CN(C(=O)[C@H]1CC1(C)C)C2)C(=O)N1CC[C@@H]1CN [I-270] | 7.00 to 8.00 |
| C[C@@H](OCC1CCCCC1)[C@@H](COC1CCC(F)(F)CC1)NC(=O)[C@@H]1CN(C(=O)c2cnn(Cc3ccccc3)c2)CC12CN(C(=O)[C@H]1CC1(C)C)C2 [I-271] | ≥ 8.00 |
| CNC(=O)[C@@H](NC(=O)[C@@H]1CN(C(=O)c2cnn(Cc3ccccc3)c2)CC12CN(C(=O)[C@H]1CC1(C)C)C2)[C@@H](C)N(CC1CCCCC1)C(C)=O [I-273, (S)-6-(1-benzyl-1H-pyrazole-4-carbonyl)-N-((2S,3R)-3-(N-(cyclohexylmethyl)acetamido)-1-(methylamino)-1-oxobutan-2-yl)-2-((S)-2,2-dimethylcyclopropane-1-carbonyl)-2,6-diazaspiro[3.4]octane-8-carboxamide] | < 5.00 |
| CNC(=O)[C@@H](NC(=O)[C@@H]1CN(C(=O)c2cnn(Cc3ccccc3)c2)CC12CN(C(=O)N(C)C(C)C)C2)[C@@H](C)OCC1CCCCC1 [I-274, (S)-6-(1-benzyl-1H-pyrazole-4-carbonyl)-N8-((2S,3R)-3-(cyclohexylmethoxy)-1-(methylamino)-1-oxobutan-2-yl)-N2-isopropyl-N2-methyl-2,6-diazaspiro[3.4]octane-2,8-dicarboxamide] | 6.00 to 7.00 |
| C[C@H](OC1CCN(C(=O)[C@@H]2CN(C(=O)c3cnn(Cc4ccccc4)c3)CC23CN(C(=O)[C@H]2CC2(C)C)C3)CC1)c1ccccc1 [I-275] | 6.00 to 7.00 |
| CNC(=O)[C@@H](NC(=O)[C@@H]1CN(C(=O)c2cnn(Cc3ccccc3)c2)CC12CN(C(=O)C(C)(C)C1CC1)C2)[C@@H](C)OCc1ccccc1 [I-276] | 5.00 to 6.00 |
| CNC(=O)[C@@H](NC(=O)[C@@H]1CN(C(=O)c2cnn(Cc3ccccc3)c2)CC12CN(C(=O)C(C)C1CC1)C2)[C@@H](C)OCc1ccccc1 (stereo partly shown) [I-277] | 5.00 to 6.00 |
| Cc1ccc2[nH]c(CNC(=O)C3CN(C(=O)c4cnn(Cc5ccccc5)c4)CC34CN(C(=O)[C@H]3CC3(C)C)C4)nc2c1 (stereo partly shown) [I-278] | 5.00 to 6.00 |
| CNC(=O)[C@@H](NC(=O)[C@@H]1CN(C(=O)c2cncs2)CC12CN(C(=O)[C@H]1CC1(C)C)C2)[C@@H](C)OC(C)C1CCCCC1 (stereo partly shown) [I-279] | 7.00 to 8.00 |
| C[C@@H](OCc1ccccc1)[C@H](NC(=O)[C@@H]1CN(C(=O)c2cnn(Cc3ccccc3)c2)CC12CN(C(=O)[C@H]1CC1(C)C)C2)C(=O)N1CCC(F)(F)CC1 [I-280] | ≥ 8.00 |
| C[C@@H](OCC1CCCCC1)[C@@H](COCC1CCCCC1)NC(=O)[C@@H]1CN(C(=O)c2cncs2)CC12CN(C(=O)[C@H]1CC1(C)C)C2 [I-282] | ≥ 8.00 |
| COC[C@H]1CCCN(C(=O)[C@@H](NC(=O)[C@@H]2CN(C(=O)c3cnn(Cc4ccccc4)c3)CC23CN(C(=O)[C@H]2CC2(C)C)C3)[C@@H](C)OC)C1 [I-283] | 5.00 to 6.00 |
| CC(O[C@H](C)[C@H](NC(=O)[C@@H]1CN(C(=O)c2cncs2)CC12CN(C(=O)[C@H]1CC1(C)C)C2)C(=O)N1CCCCC1)C1CCCCC1 (stereo partly drawn) [I-284, (8S)—N-((2S,3R)-3-(1-cyclohexylethoxy)-1-oxo-1-(piperidin-1-yl)butan-2-yl)-2-((S)-2,2-dimethylcyclopropane-1-carbonyl)-6-(thiazole-5-carbonyl)-2,6-diazaspiro[3.4]octane-8-carboxamide] | 7.00 to 8.00 |
| C[C@@H](OCC1(C(F)(F)F)CC1)[C@H](NC(=O)[C@@H]1CN(C(=O)c2cncs2)CC12CN(C(=O)[C@H]1CC1(C)C)C2)C(=O)N1CCCCC1 [I-285] | 6.00 to 7.00 |

| Compound | pIC50 |
| --- | --- |
| CC1(C)C[C@@H]1C(=O)N1CC2(CN(C(=O)c3cncs3)C[C@H]2C(=O)N[C@@H](COCC2CCCCC2)C(=O)N2CCCCC2)C1 [I-286] | 7.00 to 8.00 |
| C[C@@H](OCC1(C(F)(F)F)CC1)[C@H](NC(=O)[C@@H]1CN(C(=O)c2cncs2)CC12CN(C(=O)[C@H]1CC1(C)C)C2)C(=O)N1CCC(F)(F)CC1 [I-287] | 6.00 to 7.00 |
| C[C@@H](OCC1CCOCC1)[C@H](NC(=O)[C@@H]1CN(C(=O)c2cncs2)CC12CN(C(=O)[C@H]1CC1(C)C)C2)C(=O)N1CCC(F)(F)CC1 [I-288] | 7.00 to 8.00 |
| CNC(=O)[C@@H](NC(=O)[C@@H]1CN(C(=O)c2cncs2)CC12CN(C(=O)[C@H]1CC1(C)C)C2)[C@@H](C)OCC12CCC(CC1)CC2 [I-289] | ≥ 8.00 |
| CNC(=O)[C@@H](NC(=O)[C@@H]1CN(C(=O)c2cncs2)CC12CN(C(=O)[C@H]1CC1(C)C)C2)[C@@H](C)OC1CCCCC1 [I-290] | 6.00 to 7.00 |
| C[C@@H](OCC1(C(F)(F)F)CC1)[C@H](NC(=O)[C@H]1CN(C(=O)c2cncs2)CC12CN(C(=O)[C@H]1CC1(C)C)C2)C(=O)N1CCC(F)(F)CC1 [I-291] | 6.00 to 7.00 |
| C[C@@H](OCC1(C(F)(F)F)CC1)[C@H](NC(=O)[C@H]1CN(C(=O)c2cncs2)CC12CN(C(=O)[C@H]1CC1(C)C)C2)C(=O)N1CCCCC1 [I-292] | 7.00 to 8.00 |
| CC1(C)C[C@@H]1C(=O)N1CC2(CN(C(=O)c3cncs3)C[C@@H]2C(=O)N[C@@H](COCC2CCCCC2)C(=O)N2CCCCC2)C1 [I-293] | 5.00 to 6.00 |
| CNC(=O)[C@@H](NC(=O)[C@@H]1CN(C(=O)c2cnn(Cc3ccccc3)c2)CC12CN(CC(=O)O)C2)[C@@H](C)OCC1CCCCC1 [I-294, 2-((S)-6-(1-benzyl-1H-pyrazole-4-carbonyl)-8-(((2S,3R)-3-(cyclohexylmethoxy)-1-(methylamino)-1-oxobutan-2-yl)carbamoyl)-2,6-diazaspiro[3.4]octan-2-yl)acetic acid] | < 5.00 |
| CNC(=O)[C@@H](NC(=O)[C@@H]1CN(C(=O)c2cnn(Cc3ccccc3)c2)CC12CN(C(=O)N(C)C1CC1)C2)[C@@H](C)OCC1CCCCC1 [I-295] | 6.00 to 7.00 |
| C[C@@H](OCC1CCCCC1)[C@H](NC(=O)[C@@H]1CN(C(=O)c2cncs2)CC12CN(C(=O)[C@H]1CC1(F)F)C2)C(=O)N1CCCCC1 [I-296] | 7.00 to 8.00 |
| C[C@@H](OCC1CCOCC1)[C@H](NC(=O)[C@@H]1CN(C(=O)c2cn[nH]c2)CC12CN(C(=O)[C@H]1CC1(C)C)C2)C(=O)N1CCC(F)(F)CC1 [I-297] | 7.00 to 8.00 |
| CNC(=O)C(NC(=O)[C@@H]1CN(C(=O)c2cn[nH]c2)CC12CN(C(=O)[C@H]1CC1(C)C)C2)C(O)Cc1ccccc1 (stereo partly shown) [I-298] | < 5.00 |
| CNC(=O)[C@@H](NC(=O)[C@@H]1CN(C(=O)c2cnn(Cc3ccccc3)c2)CC12CN(C(=O)[C@H]1CC1(C)C)C2)[C@@H](C)OCC12CC(C(=O)OC)(C1)C2 [I-299] | 7.00 to 8.00 |
| C[C@@H](OCC1CCCCC1)[C@H](NC(=O)[C@@H]1CN(C(=O)c2cnn(Cc3ccccc3)c2)CC12CN(C(=O)[C@H]1CC1(C)C)C2)C(=O)N1CCC(c2ccncc2)CC1 [I-300] | ≥ 8.00 |
| C[C@@H](OCC1CCC(F)(F)CC1)[C@H](NC(=O)[C@@H]1CN(C(=O)c2cn[nH]c2)CC12CN(C(=O)[C@H]1CC1(C)C)C2)C(=O)N1CCOCC1 [I-301, (S)—N-((2S,3R)-3-((4,4-difluorocyclohexyl)methoxy)-1-morpholino-1-oxobutan-2-yl)-2-((S)-2,2-dimethylcyclopropane-1-carbonyl)-6-(1H-pyrazole-4-carbonyl)-2,6-diazaspiro[3.4]octane-8-carboxamide] | ≥ 8.00 |
| C[C@@H](OCC1CCC(F)(F)CC1)[C@H](NC(=O)[C@@H]1CN(C(=O)c2cn[nH]c2)CC12CN(C(=O)C1(C(F)(F)F)CC1)C2)C(=O)N1CCOCC1 [I-302] | 7.00 to 8.00 |
| CO[C@H](C)[C@H](NC(=O)[C@@H]1CN(C(=O)c2cnn(C)c2)CC12CN(C(=O)[C@H]1CC1(C)C)C2)C(=O)N1CCCCC1 [I-303] | < 5.00 |
| C[C@@H](OCC12CCC(CC1)CC2)[C@H](NC(=O)[C@@H]1CN(C(=O)c2cncs2)CC12CN(C(=O)[C@H]1CC1(C)C)C2)C(C)(C)O [I-304] | ≥ 8.00 |
| C[C@@H](O)[C@H](NC(=O)[C@@H]1CN(C(=O)c2cnn(C)c2)CC12CN(C(=O)[C@H]1CC1(C)C)C2)C(=O)N1CCCCC1 [I-305] | < 5.00 |
| CO[C@H](C)[C@H](NC(=O)[C@@H]1CN(C(=O)c2cnn(Cc3ccccc3)c2)CC12CN(C(=O)[C@H]1CC1(C)C)C2)C(=O)N1CCC(CN)CC1 [I-306] | 5.00 to 6.00 |
